The target of assay [1] is T1, Serotonin 3 (5-HT3) receptor (Rattus norvegicus, UniProt P35563+Q9JJ16).
T1 sequence (P35563 whole entry): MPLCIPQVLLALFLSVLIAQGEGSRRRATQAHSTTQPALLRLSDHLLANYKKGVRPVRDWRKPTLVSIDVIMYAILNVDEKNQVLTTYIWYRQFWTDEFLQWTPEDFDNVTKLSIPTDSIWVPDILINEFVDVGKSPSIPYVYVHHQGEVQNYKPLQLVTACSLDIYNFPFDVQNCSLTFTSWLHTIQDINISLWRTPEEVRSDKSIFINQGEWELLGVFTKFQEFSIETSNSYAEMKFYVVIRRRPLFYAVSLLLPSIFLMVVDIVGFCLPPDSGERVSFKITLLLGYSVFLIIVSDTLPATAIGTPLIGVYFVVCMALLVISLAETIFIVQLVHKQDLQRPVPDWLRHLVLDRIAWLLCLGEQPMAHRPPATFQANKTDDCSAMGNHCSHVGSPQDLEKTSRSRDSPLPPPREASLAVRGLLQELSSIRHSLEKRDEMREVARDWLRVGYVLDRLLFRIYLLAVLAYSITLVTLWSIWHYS
T1 sequence (Q9JJ16 whole entry): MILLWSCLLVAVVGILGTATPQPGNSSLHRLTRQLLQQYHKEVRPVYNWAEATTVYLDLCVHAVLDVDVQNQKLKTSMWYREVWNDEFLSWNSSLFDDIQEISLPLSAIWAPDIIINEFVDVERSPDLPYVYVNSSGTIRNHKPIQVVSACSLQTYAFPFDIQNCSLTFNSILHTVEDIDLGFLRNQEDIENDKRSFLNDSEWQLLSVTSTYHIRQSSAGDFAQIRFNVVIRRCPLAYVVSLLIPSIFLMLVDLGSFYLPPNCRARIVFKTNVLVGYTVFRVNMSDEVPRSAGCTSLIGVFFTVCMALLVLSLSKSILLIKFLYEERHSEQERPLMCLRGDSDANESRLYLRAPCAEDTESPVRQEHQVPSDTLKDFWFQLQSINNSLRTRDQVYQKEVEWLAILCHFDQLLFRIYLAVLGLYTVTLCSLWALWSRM
In words: Binding affinity was measured on 5-hydroxytryptamine 3 receptor in NG-108 cells labeled with [3H]GR-65630. Format: cell-based.

Assay [2] addresses T2, 5-hydroxytryptamine receptor 1D (Homo sapiens, UniProt P28221). Nature of the assay: Binding affinity was measured on 5-hydroxytryptamine 1D receptor alpha in COS cells transfected with human 5-HT1D alpha gene labeled with [3H]5-HT. Type of assay: cell-based.
Assay [3] has as its target 5-hydroxytryptamine receptor 2A (Homo sapiens, UniProt P28223). Nature of the assay: biochemical. Format: cell-based, GF6.
Assay [4] deals with T3, 5-hydroxytryptamine receptor 2C (Rattus norvegicus, UniProt P08909).
T3 sequence (P08909 whole entry): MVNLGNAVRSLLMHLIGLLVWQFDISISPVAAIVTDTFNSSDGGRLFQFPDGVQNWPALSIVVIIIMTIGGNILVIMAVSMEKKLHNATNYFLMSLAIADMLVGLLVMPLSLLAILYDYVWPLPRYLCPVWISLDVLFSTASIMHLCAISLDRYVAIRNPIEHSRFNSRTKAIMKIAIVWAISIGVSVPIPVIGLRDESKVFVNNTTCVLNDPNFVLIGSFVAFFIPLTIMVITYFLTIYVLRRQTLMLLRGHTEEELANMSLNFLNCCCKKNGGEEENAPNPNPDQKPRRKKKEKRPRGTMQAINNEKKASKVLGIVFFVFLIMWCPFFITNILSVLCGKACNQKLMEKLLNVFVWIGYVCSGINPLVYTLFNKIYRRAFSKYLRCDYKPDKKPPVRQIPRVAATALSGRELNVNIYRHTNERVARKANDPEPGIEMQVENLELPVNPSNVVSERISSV
In words: Binding affinity was measured on 5-hydroxytryptamine 2C receptor in J1 cells transfected with rat 5-HT2C gene labeled with [3H]mesulergine. Format: cell-based.

Assay [5] concerns the target T2, 5-hydroxytryptamine receptor 1D. Nature of the assay: Compound was evaluated for its agonistic activity on 5-hydroxytryptamine 1D receptor. Type of assay: functional.
In assay [6] the target is 5-hydroxytryptamine receptor 1B (Rattus norvegicus, UniProt P28564). Nature of the assay: Binding affinity was measured on 5-hydroxytryptamine 1B receptor in rat striatum labeled with [3H]5-HT. Type of assay: tissue-based.

The structures appear in SMILES notation.

T2 sequence (P28221 whole entry): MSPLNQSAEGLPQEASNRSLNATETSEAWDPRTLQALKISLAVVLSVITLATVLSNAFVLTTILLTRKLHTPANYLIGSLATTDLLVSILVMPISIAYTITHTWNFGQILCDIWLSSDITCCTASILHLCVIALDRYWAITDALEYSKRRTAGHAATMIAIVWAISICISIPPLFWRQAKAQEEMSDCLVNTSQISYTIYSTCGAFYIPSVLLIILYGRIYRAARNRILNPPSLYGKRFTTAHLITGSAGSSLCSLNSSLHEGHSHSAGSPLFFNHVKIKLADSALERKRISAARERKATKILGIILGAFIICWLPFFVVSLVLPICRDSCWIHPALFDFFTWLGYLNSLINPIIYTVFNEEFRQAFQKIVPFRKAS
5-hydroxytryptamine receptor 1B, sequence (P28564 whole entry): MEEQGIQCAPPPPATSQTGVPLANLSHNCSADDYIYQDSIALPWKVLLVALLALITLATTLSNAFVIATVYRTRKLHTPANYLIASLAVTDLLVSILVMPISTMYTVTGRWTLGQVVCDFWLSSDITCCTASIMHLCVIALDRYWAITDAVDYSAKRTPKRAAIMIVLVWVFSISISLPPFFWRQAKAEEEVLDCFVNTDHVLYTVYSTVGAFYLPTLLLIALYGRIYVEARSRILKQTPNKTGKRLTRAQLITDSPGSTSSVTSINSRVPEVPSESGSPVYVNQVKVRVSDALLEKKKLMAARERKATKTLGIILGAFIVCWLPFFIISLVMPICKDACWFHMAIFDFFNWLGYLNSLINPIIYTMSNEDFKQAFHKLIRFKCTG
5-hydroxytryptamine receptor 2A, sequence (P28223 whole entry): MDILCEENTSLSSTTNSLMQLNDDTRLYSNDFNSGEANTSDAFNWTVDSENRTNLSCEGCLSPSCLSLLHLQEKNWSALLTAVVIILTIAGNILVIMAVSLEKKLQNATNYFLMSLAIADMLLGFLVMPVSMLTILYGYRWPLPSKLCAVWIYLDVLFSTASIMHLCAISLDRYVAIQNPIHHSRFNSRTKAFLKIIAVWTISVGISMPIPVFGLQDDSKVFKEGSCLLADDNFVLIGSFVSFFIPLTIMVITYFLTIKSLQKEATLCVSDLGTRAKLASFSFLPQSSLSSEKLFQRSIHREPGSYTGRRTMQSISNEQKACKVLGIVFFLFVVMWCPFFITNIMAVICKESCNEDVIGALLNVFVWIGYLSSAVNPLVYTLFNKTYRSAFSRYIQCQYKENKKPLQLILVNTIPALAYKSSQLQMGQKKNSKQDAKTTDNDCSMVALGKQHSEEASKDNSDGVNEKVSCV

`CCCCCCCCCOc1ccc2[nH]cc(CCN)c2c1`: the Ki (usually the dissociation constant of the complex between target and ligand, obtained from inhibition or displacement) in assay [1] is over 1000 nM; in assay [2] it was 16 nM; in assay [3], 260 nM; in assay [4], 270 nM; in assay [6], 13 nM. This compound registered an ED50 in assay [5] of 68 nM.
On to `NCCc1c[nH]c2ccc(O)cc12`, for which the ED50 in assay [5] came out at 1.2 nM.
Consider `CNS(=O)(=O)Cc1ccc2[nH]cc(CCN(C)C)c2c1`, for which the inhibitory constant (Ki) in assay [1] and in assay [4] was over 1000 nM each time. This compound registered an ED50 in assay [5] of 317 nM.

(Values after ChEMBL document CHEMBL1127443 (J Med Chem, 1994).)
